Test results: patent publication US20070111968A1, “1-Aza-dibenzo[e,h]azulenes for the treatment of central nervous system diseases and disorders” (GLAXOSMITHKLINE ISTRAZIVACKI CENTAR ZAGREB D.O.O., priority 2003, published 2007)

Tests used:
[1] = molecular target: T1, 5-HT2C receptor (Homo sapiens, UniProt P28335); experiment: radioligand binding assay for 5-HT2C receptor ([3H]mesulergine); conditions: competitive binding
T1 construct: expressed in transfected cells; host or cells: CHO-K1 (or COS-7); alternatively choroid plexus tissue
T1 sequence (P28335 33-458): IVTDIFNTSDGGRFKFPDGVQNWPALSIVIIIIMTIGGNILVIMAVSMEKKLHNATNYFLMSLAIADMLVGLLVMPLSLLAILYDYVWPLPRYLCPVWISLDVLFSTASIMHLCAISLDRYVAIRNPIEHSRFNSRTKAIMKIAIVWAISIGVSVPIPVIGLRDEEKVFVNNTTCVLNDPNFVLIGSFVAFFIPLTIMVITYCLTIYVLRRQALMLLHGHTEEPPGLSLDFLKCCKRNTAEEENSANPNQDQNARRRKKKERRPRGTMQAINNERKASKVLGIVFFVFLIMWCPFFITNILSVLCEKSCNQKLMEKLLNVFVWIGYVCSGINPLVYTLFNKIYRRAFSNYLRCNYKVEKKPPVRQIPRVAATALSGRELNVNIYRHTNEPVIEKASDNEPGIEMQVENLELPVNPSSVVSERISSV
Protocol: (§1) The effect of the compounds of the present invention on the neurochemical steady state was determined by in vitro investigations such as a radionuclide-marked radioligand binding assay for 5-HT2A (Bonhaus D. W. Br. J. Pharmacol. 1995, 115:622; Saucier C. J. Neurochem. 1997, 68:1998) and 5-HT2C receptors (Wolf W. A. J. Neurochem. 1997, 69:1449), in vitro binding assay for σ1 receptor (Thomson W. and Donn R. Arthritis Res. 2002, 4: 302-306) and by in vivo investigations in a tail suspension test (Vogel H. G. and Vogel W. H. Drug Discovery and Evaluation Pharmacological Assays, Springer 1997, 304), in amphethamine-induced hyperlocomotion in mice (Millan M. J. et al, 1998 J. Pharmacol. Exp. Ther. 287: 167-186), in a forced swim test in mice (Porsolt R. D. et al. Arch. Int. Pharmacodyn. 1977, 229:327-336), in meta-chlorophenyl piperazine (m-CPP) test on rats (Drug Dev. Res. 1989, 18:119-144), and in apomorphine, tryptamine, norepinephrine (ATN) test in rats (Arch. Int. […]
(§2) A small concentration of a radioligand having a great affinity for binding to a receptor was incubated with a tissue sample enriched with a certain receptor (1-5 mg of tissue) in a buffered medium (0.2-5 mL). […] When a binding balance was achieved, the receptors to which the radioligand was bound were separated from those to which said ligand was not bound, and the radioactivity of the receptor/radioligand complex was measured. […]

[2] = molecular target: T2, 5-HT2A receptor (Homo sapiens, UniProt P28223); experiment: radioligand binding assay for 5-HT2A receptor ([3H]-ketanserin); conditions: competitive binding
T2 construct: expressed in transfected cells; host or cells: CHO-K1 (or COS-7); alternatively human cortex tissue
T2 sequence (P28223 whole entry): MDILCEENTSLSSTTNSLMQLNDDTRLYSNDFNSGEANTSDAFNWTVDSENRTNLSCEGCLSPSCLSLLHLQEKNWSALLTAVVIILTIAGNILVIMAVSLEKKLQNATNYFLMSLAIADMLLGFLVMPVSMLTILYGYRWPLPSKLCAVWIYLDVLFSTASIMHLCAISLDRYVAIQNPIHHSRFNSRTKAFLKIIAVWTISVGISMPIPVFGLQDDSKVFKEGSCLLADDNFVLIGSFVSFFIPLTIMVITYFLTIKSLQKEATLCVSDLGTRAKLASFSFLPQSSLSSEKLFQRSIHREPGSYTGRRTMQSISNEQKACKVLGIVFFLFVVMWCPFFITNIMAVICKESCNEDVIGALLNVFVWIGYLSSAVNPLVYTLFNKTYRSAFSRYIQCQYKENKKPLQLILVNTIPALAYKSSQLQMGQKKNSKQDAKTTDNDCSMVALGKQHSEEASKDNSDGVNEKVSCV
Protocol: as §1, §2

IC50 ([1]; choroid plexus or recombinant 5-HT2C in CHO-K1, read-out: binding affinity to 5-HT2C serotonin receptor expressed as IC50 value): < 200 nM
Ki ([1]; choroid plexus or recombinant 5-HT2C in CHO-K1, read-out: binding affinity to 5-HT2C serotonin receptor, Ki value): < 100 nM
IC50 ([2]; human cortex or recombinant 5-HT2A in CHO-K1, read-out: binding affinity to 5-HT2A serotonin receptor expressed as IC50 value): < 200 nM
Ki ([2]; human cortex or recombinant 5-HT2A in CHO-K1, read-out: binding affinity to 5-HT2A serotonin receptor, Ki value): < 100 nM
Structure (SMILES): CN(C)CCOCc1cc2c([nH]1)-c1ccccc1Sc1ccccc1-2 [dimethyl-[2-(1H-8-thia-1-aza-dibenzo[e,h]azulen-2-ylmethoxy)-ethyl]-amine]
